Reference: PubChem BioAssay AID248 (DTP/NCI, 2004)
Several values for one entry are separate records, joined by “and”; a condition that tells them apart may be missing. Identical values can stand only once. Toxic doses and inconclusive results are not listed. Cut-off read from the data, not from the text of the source: active = T/C of 150% or more; inactive = T/C below 125%.

Tested on: L1210 leukemia ip in BDF1 mice, survival T/C
Assay: NCI In Vivo Anticancer Drug Screen. Data for tumor model L1210 Leukemia (intraperitoneal) in B6D2F1 (BDF1) mice
Details: endpoint: mean survival time, higher = longer survival
Procedure, shortened: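 Each compound was tested against a transplantable tumor grown in mice. The endpoint was survival, with treated animals benchmarked against vehicle controls as a simple ratio.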

[1] = dose: 100.0 mg/kg/injection, schedule: Q01DX009 (ip), vehicle: Klucel (hydroxypropylcellulose) (HPC)
[2] = dose: 200.0 mg/kg/injection, schedule: Q01DX009 (ip), vehicle: Klucel (hydroxypropylcellulose) (HPC)
[3] = dose: 100.0 mg/kg/injection, schedule: Q01DX009 (ip), vehicle: saline with Tween-80
[4] = dose: 100.0 mg/kg/injection, schedule: Q04DX003 (ip), vehicle: saline with Tween-80
[5] = dose: 200.0 mg/kg/injection, schedule: Q01DX009 (ip), vehicle: saline with Tween-80
[6] = dose: 200.0 mg/kg/injection, schedule: Q04DX003 (ip), vehicle: saline with Tween-80
[7] = dose: 400.0 mg/kg/injection, schedule: Q04DX003 (ip), vehicle: saline with Tween-80
[8] = dose: 50.0 mg/kg/injection, schedule: Q01DX001 (ip), vehicle: Klucel (hydroxypropylcellulose) (HPC)
[9] = dose: 100.0 mg/kg/injection, schedule: Q01DX001 (ip), vehicle: Klucel (hydroxypropylcellulose) (HPC)
[10] = dose: 200.0 mg/kg/injection, schedule: Q01DX001 (ip), vehicle: Klucel (hydroxypropylcellulose) (HPC)
[11] = dose: 100.0 mg/kg/injection, schedule: Q01DX001 (ip), vehicle: carboxymethylcellulose (CMC)
[12] = dose: 200.0 mg/kg/injection, schedule: Q01DX001 (ip), vehicle: carboxymethylcellulose (CMC)
[13] = dose: 400.0 mg/kg/injection, schedule: Q01DX001 (ip), vehicle: carboxymethylcellulose (CMC)
[14] = dose: 100.0 mg/kg/injection, schedule: Q04DX003 (ip), vehicle: Klucel (hydroxypropylcellulose) (HPC)
[15] = dose: 200.0 mg/kg/injection, schedule: Q04DX003 (ip), vehicle: Klucel (hydroxypropylcellulose) (HPC)
[16] = dose: 25.0 mg/kg/injection, schedule: Q01DX009 (ip), vehicle: Klucel (hydroxypropylcellulose) (HPC)

Measured: T/C

O=C(c1ccc(C(=O)N(c2ccccc2)C2CCCCC2)cc1)N(c1ccccc1)C1CCCCC1
inactive: [1] 96 % of control | [2] 100 % of control | dose: 400.0 mg/kg/injection, schedule: Q01DX009 (ip), vehicle: Klucel (hydroxypropylcellulose) (HPC) 86 % of control

c1ccc(CCCSc2ccccc2)cc1
inactive: [3] 120 % of control | [4] 108 % of control | [5] 104 % of control | [6] 94 % of control | [7] 100 % of control

CC(=O)Nc1[nH]ncc1C(N)=O
inactive: [8] 100 % of control | [9] 100 % of control | [10] 98 % of control

C/C(=N\N=C(/C)c1ccc2ccccc2c1)c1ccc2ccccc2c1
inactive: [4] 94 % of control | [6] 91 % of control

ClC1=CCCCC1
inactive: dose: 25.0 mg/kg/injection, schedule: Q01DX009 (ip), vehicle: acetone 95 % of control | dose: 50.0 mg/kg/injection, schedule: Q01DX009 (ip), vehicle: acetone 101 % of control | dose: 100.0 mg/kg/injection, schedule: Q01DX009 (ip), vehicle: acetone 100 % of control

O=C(Nc1c(Cl)cc2c(c1Cl)Cc1cc([N+](=O)[O-])ccc1-2)C(Cl)Cl
inactive: [11] 98 % of control | [12] 102 % of control | [13] 98 % of control

CC1=NN(c2ccccc2)C(=O)C1N=Nc1ccc(S(=O)(=O)Nc2ccccn2)cc1 (centres undefined)
inactive: [11] 97 % of control | [12] 94 % of control | [13] 97 % of control

O=C1OC(c2cccc(Cl)c2)=N/C1=C\c1ccc2c(c1)OCO2
inactive: dose: 100.0 mg/kg/injection, schedule: Q04DX002 (ip), vehicle: saline with Tween-80 95 % of control | dose: 200.0 mg/kg/injection, schedule: Q04DX002 (ip), vehicle: saline with Tween-80 89 % of control | dose: 400.0 mg/kg/injection, schedule: Q04DX002 (ip), vehicle: saline with Tween-80 92 % of control

ClC(Cl)(Cl)C(N1CCN(c2ccccc2)CC1)N1CCN(c2ccccc2)CC1
inactive: [11] 101 % of control | [12] 106 % of control | [13] 89 % of control

Clc1ccc(Sc2ccccc2)cc1
inactive: [14] 105 % of control | [15] 88 % of control | dose: 400.0 mg/kg/injection, schedule: Q04DX003 (ip), vehicle: Klucel (hydroxypropylcellulose) (HPC) 105 % of control

N#CCCNc1ccccc1
inactive: [3] 95 % of control | [4] 103 % of control | [5] 106 % of control | [6] 108 % of control | dose: 400.0 mg/kg/injection, schedule: Q01DX009 (ip), vehicle: saline with Tween-80 86 % of control | [7] 105 % of control

CC(=O)OC(=O)c1ccc2c(c1)C(=O)c1ccccc1C2=O
inactive: [16] 100 % of control | [8] 105 % of control | dose: 50.0 mg/kg/injection, schedule: Q01DX009 (ip), vehicle: Klucel (hydroxypropylcellulose) (HPC) 98 % of control | [9] 111 % of control | [1] 102 % of control | [14] 100 % of control | [10] 111 % of control | dose: 400.0 mg/kg/injection, schedule: Q01DX001 (ip), vehicle: Klucel (hydroxypropylcellulose) (HPC) 96 % of control and 105 % of control

CCCCCCCCCCCCCCCCS(=O)(=O)Nc1cc(C(=O)NN)cc(C(=O)NN)c1
inactive: [4] 90 % of control | [6] 86 % of control | [7] 88 % of control

O=C1c2ccc(Br)cc2-c2cc(Br)c([N+](=O)[O-])cc21
inactive: [11] 98 % of control | [12] 98 % of control | [13] 113 % of control

O=C(O)Cc1ccccc1
inactive: dose: 18.75 mg/kg/injection, schedule: Q01DX009 (ip), vehicle: acetone 95 % of control | dose: 37.5 mg/kg/injection, schedule: Q01DX009 (ip), vehicle: acetone 90 % of control | dose: 37.5 mg/kg/injection, schedule: Q04DX003 (ip), vehicle: acetone 96 % of control | dose: 75.0 mg/kg/injection, schedule: Q01DX001 (ip), vehicle: carboxymethylcellulose (CMC) 96 % of control | dose: 75.0 mg/kg/injection, schedule: Q01DX001 (ip), vehicle: saline 95 % of control | dose: 75.0 mg/kg/injection, schedule: Q01DX009 (ip), vehicle: acetone 90 % of control | dose: 75.0 mg/kg/injection, schedule: Q04DX003 (ip), vehicle: acetone 91 % of control | dose: 150.0 mg/kg/injection, schedule: Q01DX001 (ip), vehicle: carboxymethylcellulose (CMC) 94 % of control | dose: 150.0 mg/kg/injection, schedule: Q01DX001 (ip), vehicle: saline 93 % of control | dose: 150.0 mg/kg/injection, schedule: Q04DX003 (ip), vehicle: acetone 98 % of control

Cc1nc2c(O)cccc2cc1CO
inactive: [1] 95 % of control | [2] 93 % of control

CC(C)CC(NC(=O)c1ccccc1)C(=O)O (centres undefined)
inactive: [5] 88 % of control | dose: 264.0 mg/kg/injection, schedule: Q01DX009 (ip), vehicle: saline with Tween-80 97 % of control | dose: 600.0 mg/kg/injection, schedule: Q01DX009 (ip), vehicle: saline with Tween-80 92 % of control

c1cc[c]([Sn]([O]B([O][Sn]([c]2ccccc2)([c]2ccccc2)[c]2ccccc2)[O][Sn]([c]2ccccc2)([c]2ccccc2)[c]2ccccc2)([c]2ccccc2)[c]2ccccc2)cc1
inactive: dose: 5.0 mg/kg/injection, schedule: Q04DX002 (ip), vehicle: saline with Tween-80 101 % of control | dose: 10.0 mg/kg/injection, schedule: Q04DX002 (ip), vehicle: saline with Tween-80 104 % of control | dose: 20.0 mg/kg/injection, schedule: Q04DX002 (ip), vehicle: saline with Tween-80 101 % of control

CC1(C)N=C(N)N=C(N)N1c1ccc(CC(=O)Nc2ccc(S(=O)(=O)F)cc2)cc1
inactive: dose: 0.8 mg/kg/injection, schedule: Q01DX009 (ip), vehicle: saline 95 % of control | dose: 4.0 mg/kg/injection, schedule: Q01DX009 (ip), vehicle: saline 95 % of control | dose: 20.0 mg/kg/injection, schedule: Q01DX009 (ip), vehicle: saline 97 % of control | dose: 100.0 mg/kg/injection, schedule: Q01DX009 (ip), vehicle: saline 97 % of control | dose: 500.0 mg/kg/injection, schedule: Q01DX009 (ip), vehicle: saline 94 % of control

Cc1[nH]c(C(=O)OCc2ccccc2)c(C)c1C(=O)OCc1ccccc1
inactive: dose: 12.0 mg/kg/injection, schedule: Q01DX001 (ip), vehicle: Klucel (hydroxypropylcellulose) (HPC) 94 % of control | dose: 25.0 mg/kg/injection, schedule: Q01DX001 (ip), vehicle: Klucel (hydroxypropylcellulose) (HPC) 100 % of control | [8] 97 % of control | dose: 200.0 mg/kg/injection, schedule: Q01DX001 (ip), vehicle: saline with Tween-80 102 % of control | dose: 400.0 mg/kg/injection, schedule: Q01DX001 (ip), vehicle: saline with Tween-80 102 % of control

O=C(CBr)c1ccc(-c2ccccc2)cc1
inactive: dose: 6.0 mg/kg/injection, schedule: Q01DX009 (ip), vehicle: Klucel (hydroxypropylcellulose) (HPC) 100 % of control | dose: 12.0 mg/kg/injection, schedule: Q01DX009 (ip), vehicle: Klucel (hydroxypropylcellulose) (HPC) 96 % of control | [16] 98 % of control | [14] 98 % of control | [15] 102 % of control

Cc1ccc(S(=O)(=O)OCC2OC3(COS(=O)(=O)c4ccc(C)cc4)OC(C)(C)OC3C2O)cc1 (centres undefined)
inactive: dose: 25.0 mg/kg/injection, schedule: Q01DX009 (ip), vehicle: saline with Tween-80 92 % of control | dose: 50.0 mg/kg/injection, schedule: Q01DX009 (ip), vehicle: saline with Tween-80 87 % of control | [3] 87 % of control

O=c1ccc2ccccc2o1
inactive: dose: 45.0 mg/kg/injection, schedule: Q01DX Z (ip), vehicle: carboxymethylcellulose (CMC) 114 % of control | dose: 65.0 mg/kg/injection, schedule: Q01DX Z (ip), vehicle: carboxymethylcellulose (CMC) 94 % of control | dose: 95.0 mg/kg/injection, schedule: Q01DX Z (ip), vehicle: carboxymethylcellulose (CMC) 102 % of control | dose: 100.0 mg/kg/injection, schedule: Q01DX001 (ip), vehicle: other 100 % of control | dose: 110.0 mg/kg/injection, schedule: Q01DX Z (ip), vehicle: carboxymethylcellulose (CMC) 102 % of control and 105 % of control | dose: 165.0 mg/kg/injection, schedule: Q01DX Z (ip), vehicle: carboxymethylcellulose (CMC) 97 % of control | dose: 200.0 mg/kg/injection, schedule: Q01DX001 (ip), vehicle: other 105 % of control
